Data published in paper PMC11638965, “Leveraging Dual-Ligase Recruitment to Enhance Protein Degradation via a Heterotrivalent Proteolysis Targeting Chimera” (Journal of the American Chemical Society, 2024).

Columns and labels:
BRD4 = BRD4 (Homo sapiens, UniProt O60885); assay: NanoBRET ubiquitination assay; type: cell-based; conditions: parental vs CRBN KO or VHL KO HiBiT-BRD4 cells, HaloTag-Ubiquitin, 12 nM to 3 μM, 4 h
Experimental: NanoBRET ubiquitination experiments were conducted using Promega kit ND2690. HEK293 HiBiT-BRD4 parental, VHL KO, or CRBN KO cells (all stably expressing LgBiT) were plated in 6-well plates at 800,000 cells/well and allowed to adhere for 4–6 h prior to being transfected with 2 μg of HaloTag-Ubiquitin Fusion Vector. Cells were allowed to express overnight, then were trypsinized and resuspended in Opti-MEM (reduced serum, no phenol red) 4% FBS at a concentration of 220,000 cells/mL. HaloTag NanoBRET 618 ligand was added at a final concentration of 100 nM to cells (with a portion of cells retained without ligand for use as no-acceptor controls for normalization). 90 μL of cells were then dispensed into each well of a tissue culture 96-well plate and cells were allowed to adhere overnight. The next day, media was aspirated from cells and replaced with 90 μL of a 1× solution of Opti-MEM 4% FBS containing a 1:100 dilution of Nano-Glo Vivazine substrate. […] 10 μL of each 10 × PROTAC was added to each well and the plate was immediately placed in a ClarioStar plate reader (prewarmed to 37 °C) where donor emission (460 nm) and acceptor emission (618 nm) was collected every 3 min for 4 h. NanoBRET ratios were calculated as described in the ternary complex assay.

VHL = biological target: T1, VHL (Homo sapiens, UniProt P40337); assay: Western blot dose-response degradation in HEK293 cells; type: cell-based; conditions: 1 μM to 100 pM, 6 h
T1 construct: host or cells: HEK293, transient
T1 sequence (P40337 whole entry): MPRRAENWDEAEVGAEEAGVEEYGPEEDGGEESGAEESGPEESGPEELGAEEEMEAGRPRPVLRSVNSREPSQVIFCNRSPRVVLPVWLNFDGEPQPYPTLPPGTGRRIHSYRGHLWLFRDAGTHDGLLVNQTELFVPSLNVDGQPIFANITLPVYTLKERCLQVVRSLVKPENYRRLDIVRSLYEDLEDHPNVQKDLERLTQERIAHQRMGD
Summary of the method: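 HEK293 cells treated 6 h at 37 °C with compound over 1 μM to 100 pM alongside vehicle control; lysates in RIPA immunoblotted with target antibodies, tubulin as loading control, fluorescent detection. Band intensities fitted by linear regression to give pDC50; SD for two independent repeats, SEM for three.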

**Q.** Cc1ncsc1-c1ccc([C@H](C)NC(=O)[C@@H]2C[C@@H](O)CN2C(=O)[C@@H](NC(=O)COCC(C)(COCCOCCOCCNc2cc3c(cc2F)C(=O)N(C2CCC(=O)NC2=O)C3=O)COCCOCCOCCOC(=O)C[C@@H]2N=C(c3ccc(Cl)cc3)c3c(sc(C)c3C)-n3c(C)nnc32)C(C)(C)C)cc1 (mixture of isomers) [AB3067 (27), (17S)-11-((2-(2-(2-((2-(2,6-dioxopiperidin-3-yl)-6-fluoro-1,3-dioxoisoindolin-5-yl)amino)ethoxy)ethoxy)ethoxy)methyl)-17-((2S,4R)-4-hydroxy-2-(((S)-1-(4-(4-methylthiazol-5-yl)phenyl)ethyl)carbamoyl)pyrrolidine-1-carbonyl)-11,18,18-trimethyl-15-oxo-3,6,9,13-tetraoxa-16-azanonadecyl 2-((S)-4-(4-chlorophenyl)-2,3,9-trimethyl-6H-thieno[3,2-f][1,2,4]triazolo[4,3-a][1,4]diazepin-6-yl)acetate] was tested. Which “ubiquitination of BRD4 (in words)” value (BRD4) did it give?
**A.** occurs more rapidly than in either the CRBN KO or VHL KO cells

**Q.** Which “VHL degradation (in words)” value (VHL) does the source give for Cc1ncsc1-c1ccc(CNC(=O)[C@@H]2C[C@@H](O)CN2C(=O)[C@@H](NC(=O)COCC(COCCOCCOCCNc2cc3c(cc2F)C(=O)N(C2CCC(=O)NC2=O)C3=O)(COCCOCCOCCOC(=O)C[C@@H]2N=C(c3ccc(Cl)cc3)c3c(sc(C)c3C)-n3c(C)nnc32)COCCOCCOCCOC(=O)C[C@@H]2N=C(c3ccc(Cl)cc3)c3c(sc(C)c3C)-n3c(C)nnc32)C(C)(C)C)cc1 (mixture of isomers) [AB3124 (86)] here?
**A.** no observed degradation of VHL
